#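 At the GI50, growth is halved. TGI: concentration producing complete growth inhibition.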
# Experiments:
# Assay in all cases: NCI-60 cell line screen, 384-well format
# HT29 colon = test system: HT29 colon
# SN12C renal = test system: SN12C renal
# HCT-116 colon = test system: HCT-116 colon
# COLO 205 colon = test system: COLO 205 colon
# SK-MEL-28 melanoma = test system: SK-MEL-28 melanoma
# EKVX NSCLC = test system: EKVX NSCLC
# ACHN renal = test system: ACHN renal
# NCI-H522 lung = test system: NCI-H522 lung
# PC-3 prostate = test system: PC-3 prostate
# UACC-62 melanoma = test system: UACC-62 melanoma
# OVCAR-5 ovarian = test system: OVCAR-5 ovarian
# K-562 leukemia = test system: K-562 leukemia
# M14 melanoma = test system: M14 melanoma
# SNB-75 CNS = test system: SNB-75 CNS
# U251 glioblastoma = test system: U251 glioblastoma
# UACC-257 melanoma = test system: UACC-257 melanoma
# OVCAR-3 ovarian = test system: OVCAR-3 ovarian
# A549 NSCLC = test system: A549 NSCLC
# UO-31 renal = test system: UO-31 renal
# NCI-H322M lung = test system: NCI-H322M lung
# KM12 colon = test system: KM12 colon
# HOP-62 NSCLC = test system: HOP-62 NSCLC
# TK-10 renal = test system: TK-10 renal
# HL-60(TB) leukemia = test system: HL-60(TB) leukemia
# BT-549 breast = test system: BT-549 breast
# MDA-MB-231 breast = test system: MDA-MB-231 breast
# MDA-MB-435 melanoma = test system: MDA-MB-435 melanoma
# SR leukemia = test system: SR leukemia
# NCI-H226 lung = test system: NCI-H226 lung
# HS 578T breast = test system: HS 578T breast
# A498 renal = test system: A498 renal
# SK-MEL-5 melanoma = test system: SK-MEL-5 melanoma
# 786-0 renal = test system: 786-0 renal
# MOLT-4 leukemia = test system: MOLT-4 leukemia
# SW-620 colon = test system: SW-620 colon
# RXF 393 renal = test system: RXF 393 renal
# IGROV1 ovarian = test system: IGROV1 ovarian
# HCT-15 colon = test system: HCT-15 colon
# OVCAR-4 ovarian = test system: OVCAR-4 ovarian
# MCF7 breast = test system: MCF7 breast
# SK-OV-3 ovarian = test system: SK-OV-3 ovarian
# SF-268 CNS = test system: SF-268 CNS
# SNB-19 CNS = test system: SNB-19 CNS
# SF-295 CNS = test system: SF-295 CNS
# OVCAR-8 ovarian = test system: OVCAR-8 ovarian
# SK-MEL-2 melanoma = test system: SK-MEL-2 melanoma
# SF-539 CNS = test system: SF-539 CNS
# NCI-H23 lung = test system: NCI-H23 lung
# NCI-H460 NSCLC = test system: NCI-H460 NSCLC
# HOP-92 NSCLC = test system: HOP-92 NSCLC
# MALME-3M melanoma = test system: MALME-3M melanoma
# MDA-MB-468 breast = test system: MDA-MB-468 breast
# DU-145 prostate = test system: DU-145 prostate
# T-47D breast = test system: T-47D breast
# CAKI-1 renal = test system: CAKI-1 renal
smiles,measurement,setting,value
CC(C)N(C[C@H]1O[C@@H](n2cnc3c(N)ncnc32)[C@H](O)[C@@H]1O)C1CC(CCc2nc3ccc(C(C)(C)C)cc3[nH]2)C1 (stereo not given in full),GI50,HT29 colon,19.1 µM
same,TGI,HT29 colon,35.3 µM
same,GI50,SN12C renal,> 100 µM
same,TGI,SN12C renal,> 100 µM
same,GI50,HCT-116 colon,41.9 µM
same,TGI,HCT-116 colon,> 100 µM
same,GI50,COLO 205 colon,25.6 µM
same,TGI,COLO 205 colon,58.6 µM
same,GI50,SK-MEL-28 melanoma,18 µM
same,TGI,SK-MEL-28 melanoma,31.9 µM
same,GI50,EKVX NSCLC,88.1 µM
same,TGI,EKVX NSCLC,> 100 µM
same,GI50,ACHN renal,> 100 µM
same,TGI,ACHN renal,> 100 µM
same,GI50,NCI-H522 lung,20.1 µM
same,TGI,NCI-H522 lung,35.3 µM
same,GI50,PC-3 prostate,47 µM
same,TGI,PC-3 prostate,> 100 µM
same,GI50,UACC-62 melanoma,16.9 µM
same,TGI,UACC-62 melanoma,30.7 µM
same,GI50,OVCAR-5 ovarian,> 100 µM
same,TGI,OVCAR-5 ovarian,> 100 µM
same,GI50,K-562 leukemia,31 µM
same,TGI,K-562 leukemia,> 100 µM
same,GI50,M14 melanoma,20 µM
same,TGI,M14 melanoma,37.1 µM
same,GI50,SNB-75 CNS,22.5 µM
same,TGI,SNB-75 CNS,44.9 µM
same,GI50,U251 glioblastoma,41.7 µM
same,TGI,U251 glioblastoma,> 100 µM
same,GI50,UACC-257 melanoma,18.5 µM
same,TGI,UACC-257 melanoma,33.4 µM
same,GI50,OVCAR-3 ovarian,49.6 µM
same,TGI,OVCAR-3 ovarian,> 100 µM
same,GI50,A549 NSCLC,> 100 µM
same,TGI,A549 NSCLC,> 100 µM
same,GI50,UO-31 renal,> 100 µM
same,TGI,UO-31 renal,> 100 µM
same,GI50,NCI-H322M lung,> 100 µM
same,TGI,NCI-H322M lung,> 100 µM
same,GI50,KM12 colon,39 µM
same,TGI,KM12 colon,> 100 µM
same,GI50,HOP-62 NSCLC,> 100 µM
same,TGI,HOP-62 NSCLC,> 100 µM
same,GI50,TK-10 renal,83.9 µM
same,TGI,TK-10 renal,> 100 µM
same,GI50,HL-60(TB) leukemia,13.3 µM
same,TGI,HL-60(TB) leukemia,26 µM
same,GI50,BT-549 breast,18 µM
same,TGI,BT-549 breast,32.5 µM
same,GI50,MDA-MB-231 breast,35.4 µM
same,TGI,MDA-MB-231 breast,> 100 µM
same,GI50,MDA-MB-435 melanoma,17.9 µM
same,TGI,MDA-MB-435 melanoma,31.8 µM
same,GI50,SR leukemia,17.9 µM
same,TGI,SR leukemia,31.8 µM
same,GI50,NCI-H226 lung,> 100 µM
same,TGI,NCI-H226 lung,> 100 µM
same,GI50,HS 578T breast,20.5 µM
same,TGI,HS 578T breast,37 µM
same,GI50,A498 renal,> 100 µM
same,TGI,A498 renal,> 100 µM
same,GI50,SK-MEL-5 melanoma,23.9 µM
same,TGI,SK-MEL-5 melanoma,69.4 µM
same,GI50,786-0 renal,> 100 µM
same,TGI,786-0 renal,> 100 µM
same,GI50,MOLT-4 leukemia,18.8 µM
same,TGI,MOLT-4 leukemia,32.8 µM
same,GI50,SW-620 colon,52.3 µM
same,TGI,SW-620 colon,> 100 µM
same,GI50,RXF 393 renal,25.3 µM
same,TGI,RXF 393 renal,79 µM
same,GI50,IGROV1 ovarian,51 µM
same,TGI,IGROV1 ovarian,> 100 µM
same,GI50,HCT-15 colon,> 100 µM
same,TGI,HCT-15 colon,> 100 µM
same,GI50,OVCAR-4 ovarian,79.9 µM
same,TGI,OVCAR-4 ovarian,> 100 µM
same,GI50,MCF7 breast,20 µM
same,TGI,MCF7 breast,45.2 µM
same,GI50,SK-OV-3 ovarian,> 100 µM
same,TGI,SK-OV-3 ovarian,> 100 µM
same,GI50,SF-268 CNS,22.9 µM
same,TGI,SF-268 CNS,47.9 µM
same,GI50,SNB-19 CNS,> 100 µM
same,TGI,SNB-19 CNS,> 100 µM
same,GI50,SF-295 CNS,> 100 µM
same,TGI,SF-295 CNS,> 100 µM
same,GI50,OVCAR-8 ovarian,> 100 µM
same,TGI,OVCAR-8 ovarian,> 100 µM
same,GI50,SK-MEL-2 melanoma,15.8 µM
same,TGI,SK-MEL-2 melanoma,29.3 µM
same,GI50,SF-539 CNS,43.9 µM
same,TGI,SF-539 CNS,> 100 µM
same,GI50,NCI-H23 lung,46.6 µM
same,TGI,NCI-H23 lung,> 100 µM
same,GI50,NCI-H460 NSCLC,20.3 µM
same,TGI,NCI-H460 NSCLC,43 µM
same,GI50,HOP-92 NSCLC,19.2 µM
same,TGI,HOP-92 NSCLC,40.9 µM
same,GI50,MALME-3M melanoma,18 µM
same,TGI,MALME-3M melanoma,32 µM
same,GI50,MDA-MB-468 breast,24.8 µM
same,TGI,MDA-MB-468 breast,50.1 µM
same,GI50,DU-145 prostate,> 100 µM
same,TGI,DU-145 prostate,> 100 µM
same,GI50,T-47D breast,39 µM
same,TGI,T-47D breast,> 100 µM
same,GI50,CAKI-1 renal,> 100 µM
same,TGI,CAKI-1 renal,> 100 µM
